From US10100032B2, “Crystalline forms of 3-(4-amino-1-oxo-1,3 dihydro-isoindol-2-yl)-piperidine-2,6-dione” (AMPLIO PHARMA, LLC, priority 2011, dated 2018)

What was measured:
[1] = Water slurry analysis of lenalidomide cocrystals; type: physicochemical; set-up: key: If the cocrystal was intact, the cocrystal could be described as less soluble than the stable 3-(4-amino-1-oxo-1,3 dihydro-isoindol-2-yl)-piperidine-2,6-dione form in water (characterized as “stable”); the cocrystal transformation indicates that under those conditions the cocrystal is more soluble than the stable form of the 3-(4-amino-1-oxo-1,3 dihydro-isoindol-2-yl)-piperidine-2,6-dione in water (characterized as “transformed”); settings: slurry of ~8 to 10 mg of cocrystal in 1 mL of pure water, stirred for 24 hours, solid isolated by filtration and analyzed by XRPD
Protocol: The solubility of the cocrystals obtained in Examples 1, 2, 3, 4, 5, 6, 7, and 8 were compared to the stable form of the API in pure water by creating a slurry of ˜8 to 10 mg of cocrystal in 1 mL of water. The resulting slurry was stirred for 24 hours. The solid was isolated by filtration and analyzed by XRPD.

[2] = Stability testing of lenalidomide cocrystals; type: physicochemical; set-up: key: the solids remained as the starting cocrystal material, indicating that they are stable under these conditions (“stable”); transformed partially or completely into a different crystalline material, indicating that they are not stable under these conditions (“not stable”); settings: stored at 40 degrees Celsius and 75% relative humidity (saturated NaCl) for 14 days, XRPD

| Water slurry result [1] | Stability test result [2] | SMILES |
| --- | --- | --- |
| transformed | not stable | Nc1cccc2c1CN(C1CCC(=O)NC1=O)C2=O [L-tartaric acid cocrystal of lenalidomide] [3-(4-amino-1-oxo-1,3-dihydroisoindol-2-yl)piperidine-2,6-dione-L-tartaric acid cocrystal] |
| transformed | stable | Nc1cccc2c1CN(C1CCC(=O)NC1=O)C2=O (centres unmarked) [ammonium chloride cocrystal of lenalidomide] [3-(4-amino-1-oxo-1,3-dihydroisoindol-2-yl)piperidine-2,6-dione-ammonium chloride cocrystal] |
| transformed | stable | Nc1cccc2c1CN(C1CCC(=O)NC1=O)C2=O (centres unmarked) [gallic acid cocrystal of lenalidomide, 3-(4-amino-1-oxo-1,3-dihydroisoindol-2-yl)piperidine-2,6-dione-gallic acid cocrystal] |
| transformed | not stable | Nc1cccc2c1CN(C1CCC(=O)NC1=O)C2=O (centres unmarked) [malonic acid cocrystal of lenalidomide, 3-(4-amino-1-oxo-1,3-dihydroisoindol-2-yl)piperidine-2,6-dione-malonic acid cocrystal] |
| transformed | stable | Nc1cccc2c1CN(C1CCC(=O)NC1=O)C2=O (centres unmarked) [oxallic acid cocrystal of lenalidomide, 3-(4-amino-1-oxo-1,3-dihydroisoindol-2-yl)piperidine-2,6-dione and oxalic acid cocrystal] |
| transformed | not stable | Nc1cccc2c1CN(C1CCC(=O)NC1=O)C2=O (centres unmarked) [propyl gallate cocrystal of lenalidomide, 3-(4-amino-1-oxo-1,3-dihydroisoindol-2-yl)piperidine-2,6-dione-propylgallate cocrystal] |
| transformed | stable | Nc1cccc2c1CN(C1CCC(=O)NC1=O)C2=O (centres unmarked) [urea cocrystal of lenalidomide, 3-(4-amino-1-oxo-1,3-dihydroisoindo-2-yl)piperidine-2,6-dione-urea cocrystal] |
